Earlier results on one molecule are cited in patent US5212175A, “Benzothiophenyl benzothiophenylalkyl-N-terminal amino hydroxy β-amino acid derivatives” (G. D. Searle & Co., priority 1991, dated 1993).

The subject of one data set is pepsin. The conditions noted are these: Umezawa et al, J. Antibiot. 1970.
For data set [1] the following is noted: stated in words as a disadvantage.
The subject of a further data set is renin. To be noted: Umezawa et al, J. Antibiot. 1970.
The next data set relates to hog renin. The conditions noted are these: after the injection of hog renin into nephrectomized rats; Gross et al, Science 1971.
A further data set deals with cathepsin D. The conditions noted are these: Umezawa et al, J. Antibiot. 1970.

Molecules are shown by their SMILES. Square brackets hold non-standard residues; d marks the D form. Peptide text beside a SMILES is read from it. * marks the point of attachment. Sta = CC(C)C[C@H](N)[C@@H](O)CC(=O)O; Isovaleryl = CC(C)CC(=O)*

Take `CC(C)CC(=O)N[C@H](C(=O)N[C@H](C(=O)N[C@@H](CC(C)C)[C@@H](O)CC(=O)N[C@@H](C)C(=O)N[C@@H](CC(C)C)[C@@H](O)CC(=O)O)C(C)C)C(C)C` [pepstatin] (Isovaleryl-VV[Sta]A[Sta]-OH): in the data set with pepsin, the inhibitor of pepsin result is reported as “inhibitor”. In data set [1], the solubility result is reported as “low solubility”. Moreover, in the data set with renin, the inhibitor of renin entry is on record as “inhibitor”. The “reduce blood pressure in vivo” value with hog renin was “reduce blood pressure”. Also, in the data set with cathepsin D, the “inhibitor of cathepsin D” value was “inhibitor”.
